System: adenylate cyclase
Assay: stimulation of adenylate cyclase activity in purified fibroblast (3T3 F442A) cell membranes, AMPc measured by radioimmunoassay
Assay type: biochemical, mouse
Details: at 0.05 g/l, 37° C., 3T3 F442A fibroblast membranes; basal activity without effector = 100%
Procedure: Cell membranes are initially obtained by culturing to confluence fibroblasts of the 3T3 F442A line commercially available from Flow Laboratories.
These fibroblast cell membranes which constitute an enzyme source, are incubated in a reaction medium in the presence of ATP at 37° C. for a predefined length of time.
The resulting AMPc is measured by radioimmunoassay. Taking the basal activity, i.e. activity without an effector, as being 100%, it is possible to determine the influence of an effector on the enzyme system.
Cell membranes are purified from the fibroblast in culture.
In this context, it should be observed that purification of cell membranes releases numerous enzymes into the assay medium. Two of these enzymes are undesirable in implementing the test. They comprise firstly Na^+, K^+ ATPase which transform ATP into adenosine diphosphate, and secondly phosphodiesterase 3',5'-AMPc which degrades cyclic AMP into AMP. Thus, in order to obtain reliable results from the test, it is essential to inhibit those two enzymes. The first is inhibited by means of ouabain, and the second by means of theophylline.
The reaction medium is thus constituted by:
50 μl of a 5 mM solution of […] (ATP) as substrate;
100 μl of a 20 mM solution of ouabain as an inhibitor of ATPase;
100 μl of a 20 mM solution of theophylline as an inhibitor of phosphodiesterase; and […]

**Q.** `C=C[C@@]1(C)CC(=O)[C@]2(O)[C@@]3(C)[C@@H](O)CCC(C)(C)[C@@H]3[C@H](O)[C@H](OC(C)=O)[C@@]2(C)O1` [forskoline] was tested. Which “% activity (adenylate cyclase; basal activity = 100)” value did it give?
**A.** Its value is 225%.
